Bounds are passed on as bounds.

The test system of one data set is rice d10 variant. The data set is described as follows: Tiller (rice branching) inhibitory activity in hydroponic culture. Conditions: for activity of inhibiting the morphology of the tiller / length of the secondary tiller: rice d10 variant; for length of the secondary tiller: compared with untreated d10 variant (Figure 4). The class given is in vivo. Here is the method: In this Example, a rice d10 variant (Arite et al., Plant J, 51 (6) 1019-1029 (2007)) was used, and the strigolactone-like compound of the present invention was examined for its effects on this variant. […] In this d10 variant, the functions of a strigolactone biosynthetic enzyme are inhibited by the variation of the strigolactone biosynthetic gene so that the amount of endogenous strigolactone is decreased.
First, rice seeds were sterilized for 30 minutes with 2.5% sodium hypochlorite containing 0.01% Tween-20 and then washed with sterilized water. Then, the seeds were germinated by culture for 2 days in sterilized water of 25°C under dark conditions. The germinated seeds were transferred to a hydroponic culture medium containing 0.6% agar and grown for 6 days under conditions of a 16-hour light period and an 8-hour dark period under a fluorescent light. […] The number of tillers and the length of each tiller were determined. In this context, the test compounds used were the strigolactone-like compounds BPMF, TFTF, CPMF, NPMF, FPMF, and IPMF shown in Figure 1A, NaMF described in Synthesis Example 3, and GR24 as a control at a concentration of 1 µM, 100 nM, or 10 nM.
In the same way as in Example 1(1), the strigolactone-like compound was examined for its effects on rice tillers.
In this context, the test compounds used were p-CPMF, m-CPMF, o-CPMF, o-FPMF (1-14), o-BPMF (1-15), p-BPMF, 1-NaphMF (1-16), 2-NaphMF (NaMF), CNMF (1-17), CQMF (1-19), and TeMF (1-18) and GR24 as a control at a concentration of 1 µM or 100 nM. Also, PMF and p-CBMF were used at a concentration of 1 µM.
In this context, the test compounds used were 2-1 (2,3-DCMF), 2-2 (2,4-DCMF), 2-3 (2,5-DCMF), and 2-4 (2,6-DCMF) at a concentration of 1 µM, 100 nM, or 10 nM and GR24 as a control at a concentration of 1 µM or 100 nM.
In this context, the test compounds used were p-BPMF, 2,4-DCMF (2-2), o-BBMF (3-1), o-BPMF (1-15), o-CBMF (3-2), o-CPMF, and o-FPMF (1-14) at a concentration of 100 nM or 10 nM, 2-16, 2-6, 2-17, 2-18, and 2-19 at a concentration of 0.1 µM or 1 µM, and GR24 as a control at a concentration of 1 µM or 100 nM.

The conditions of data set [1]: in water at 20°C; cited from earlier work.
The subject of data set [2] is Arabidopsis thaliana max3 variant. The data set is described as follows: Branching inhibitory activity in hydroponic culture. The class given is in vivo. Conditions: for activity of inhibiting the morphology of the tiller of the max3 variant: 5 µM in hydroponic culture solution, 15 days (Figure 6). The source says:
In this Example, the strigolactone-like compound BPMF of the present invention was examined for its effects on an Arabidopsis thaliana max3 variant. The Arabidopsis thaliana max3 variant is a strigolactone-deficient variant, as in the rice d10 variant, and is known to have a larger number of branches (Booker J. et al., Current Biology, 14: 1232-1238 (2004)).
Briefly speaking, the surfaces of the respective seeds of wild-type Arabidopsis thaliana and the max3 variant were separately sterilized for 5 minutes with a 1% aqueous sodium hypochlorite solution. The thus-treated seeds of each strain were washed five times with sterilized water and allowed to absorb water at 4°C for 1 day under dark conditions. Then, the seeds were inoculated to a 1/2 MS medium containing 1% sucrose and 0.8% agar and cultured at 22°C for 15 days under conditions of a 16-hour day length under a fluorescent light (60 to 70 µmol m^-2 s^-1). […] Nine healthy seedlings were selected from each pot and further hydroponically cultured for 15 days (a total of 30 days) so as to prevent the above-ground part from being wetted by the hydroponic culture solution. The test compounds used were BPMF and GR24 (control). The test compound-containing hydroponic culture solution was replaced every three days.

A further data set has as its system endogenous strigolactone. The data set is described as follows: Measurement of amount of endogenous strigolactone (LC/MS-MS). It is filed as in vivo, rice (Shiokari). Conditions: 24 hours, 0.1 µM, 1 µM or 10 µM. Here is the method: In this Example, the amount of strigolactone exudates from a plant treated with the strigolactone-like compound was measured.
A sterilized solution I (2.5% sodium hypochlorite and 0.01% Tween-20) was added to rice seeds (Shiokari) and shaken at room temperature for 15 minutes. The sterilized solution I was discarded, and a sterilized solution II (2.5% sodium hypochlorite) was added thereto and shaken at room temperature for 15 minutes. In a clean bench, the sterilized solution II was discarded, and the seeds were washed five times with sterilized water and left standing at 25°C for 2 days in a dark place. Two days later, the germinated seeds were transplanted in an agar medium for hydroponic rice culture and left standing at 25°C for 6 days under conditions of a 16-hour light period and an 8-hour dark period. […]
To each hydroponic rice culture solution, 200 pg of d1-2'-epi-5-deoxystrigol per 10 mL of the hydroponic rice culture solution was added, followed by extraction with ethyl acetate (3 mL) twice. […] The sample was dried, dissolved in 50% acetonitrile, and analyzed by LC/MS-MS.
To the rice root dipped in acetone, 200 pg of d1-2'-epi-5-deoxystrigol was added, and the root was then disrupted. […] The sample was dried, dissolved in 50% acetonitrile, and analyzed by LC/MS-MS.

Data set [3] can be described thus: Stability test in water (residual compound by HPLC). It is filed as physicochemical. Conditions: 30 days in water at 20°C, read-out: stably present after being left in water. Here is the method: The strigolactone-like compound BPMF was left for 30 days in water at 20°C, and change in its activity was then determined. Briefly speaking, rice was hydroponically cultured in the same way as in the hydroponic rice culture solution test conducted in Example 3, and the amount of a residual compound in the resulting solution was calculated using HPLC. First, the hydroponic culture solution adjusted to a predetermined concentration was collected at regular intervals and filtered through a filter. Then, a predetermined amount (e.g., 10 µl) was analyzed by HPLC. The content was determined on the basis of an area value, and the degree of decomposition was calculated by comparison with a standard.

In a further data set the test system is parasitic weed. The data set is described as follows: Parasitic weed germination-inducing activity (result not shown). It is filed as in vivo. Conditions: compared with p-BPMF. The procedure: In this Example, the seeds of a parasitic weed Orobanche minor or Striga hermonthica were used, and the strigolactone-like compound of the present invention was examined for its parasitic weed germination-promoting activity.
The Striga hermonthica seeds were dipped in a 0.5% sodium hypochlorite solution containing 0.03% Tween and sterilized by treatment for 3 minutes using an ultrasonic generator. The seeds were washed three times with sterilized water and surface-dried at 27°C. Then, approximately 50 seeds were left, for preculture, at room temperature for 10 to 12 days under dark conditions on an 8-mm glass fiber filter paper moistened with 50 µl of sterilized water. A solution of each test compound concentration-adjusted by dissolution in sterilized water was used in bioassay. A filter paper was placed on a 5-cm Petri dish, and 1 ml of the test compound solution or sterilized water for comparison was added thereto. The glass fiber filter paper with the precultured parasitic weed seeds placed thereon was put on the resulting Petri dish and cultured at 30°C for 24 hours, followed by calculation of the germination rate. The test compounds used were the strigolactone-like compound BPMF shown in Figure 1A and GR24 as control at a concentration of 50 µM. […]

Setting [4] is: concentration of 100 nM, Example 8 (Figure 14).
Setting [5] is: concentration of 100 nM, Example 10 (Figures 16-1, 16-2).

As to `CC1=CC(Oc2cccc(Cl)c2Cl)OC1=O` (stereo not shown) [2-1], in the data set with rice d10 variant (setting [4]), the “activity of inhibiting the morphology of the tiller” value is given as “high activity”.
For `CC1=CC(Oc2ccc(Cl)cc2Cl)OC1=O` (stereo not shown) [2-2], the “activity of inhibiting the morphology of the tiller” value with rice d10 variant (setting [4]) and in the data set with rice d10 variant (setting [5]) was “high activity” in each case.
For the compound `CC1=CC(Oc2cc(Cl)ccc2Cl)OC1=O` (stereo not shown) [2-3], the “activity of inhibiting the morphology of the tiller” value in the data set on rice d10 variant (setting [4]) was “high activity”.
Take `CC1=CC(Oc2ccc(Br)cc2Br)OC1=O` (stereo not shown) [2-6]: the “activity of inhibiting the morphology of the tiller” value in the data set on rice d10 variant (setting [5]) is reported as “high activity”.
For the compound `CC1=CC(Oc2ccc(F)cc2F)OC1=O` (stereo not shown) [2-16], the “activity of inhibiting the morphology of the tiller” value with rice d10 variant (setting [5]) is “high activity”.
Still for that read-out and setting: with `CC1=CC(Oc2ccc(I)cc2I)OC1=O` (stereo not shown) [2-17] the entry was “high activity”.
On the same count and under the same terms, with `CC1=CC(Oc2ccc(C(F)(F)F)cc2C(F)(F)F)OC1=O` (stereo not shown) [2-18] the entry was “high activity”; with `CC1=CC(Oc2ccc(C#N)cc2C#N)OC1=O` (stereo not shown) [2-19], “high activity”.
Take `CC1=CC(OC=C2C(=O)OC3C4=C(CCCC4(C)C)CC23)OC1=O` (stereo not shown) [5-DS]: the half-life result in data set [1] was “approximately 1.5 days”.
For the compound `CC1=CC(Oc2ccc(Br)cc2)OC1=O` (stereo not shown) [BPMF, 5-(4-bromophenoxy)-3-methylfuran-2(5H)-one], the “morphology of the d10 variant” value in the data set on rice d10 variant (after 12-day growth, 10 µM (Figure 3)) is given as “restored its morphology similar to that of the wild-type strain”. For the same compound, the “concentration-dependent activity against the rice d10 variant” value with rice d10 variant (compared with GR24 (Figure 4)) was “strong activity, which was larger than that of the typical non-natural strigolactone GR24”. In the data set on rice d10 variant (d10 variant, 27, 37 and 47 days after treatment with 1 nM or 10 nM (Figure 5)), the “time-dependent change in the number of tillers” value is “more effective and have more persistent activity than GR24”. Besides, in the data set on rice d10 variant, the “length of the secondary tiller” value is “obviously inhibited”. The “activity of inhibiting the morphology of the tiller” value was “strongest activity” with rice d10 variant (concentration of 10 nM (Figure 2)); “strongest activity” with rice d10 variant (concentration of 100 nM, Example 6 (Figures 12-1 to 12-3)); “high activity” in the data set on rice d10 variant (setting [5]). Moreover, the “activity of inhibiting the morphology of the tiller of the max3 variant” value in data set [2] is “exhibited the activity of inhibiting the morphology of the tiller of the max3 variant”. Further, in data set [2] (after 30-day growth, 1 µM (Figure 7)), the “morphology of the max3 variant” value is on record as “restored its morphology similar to that of the wild-type strain”. Also, the “amount of endogenous strigolactone exudates from the rice root to the hydroponic culture solution” value with endogenous strigolactone (compared with GR24 (Figure 10)) was “decreased the amount of natural strigolactone synthesized, and this effect was higher than that of GR24”. Besides, the “amount of plant natural strigolactone synthesized” value in the data set on endogenous strigolactone (in the hydroponic rice culture solution and the rice root) is “decreased”. In addition, in data set [3], the remaining at 720 h is no less than 95%.
Take `CC1=CC(OC=C2C(=O)OC3c4ccccc4CC23)OC1=O` (stereo not shown) [GR24, reference compound]: the “activity of inhibiting the morphology of the tiller of the max3 variant” value in data set [2] is given as “exhibited the activity of inhibiting the morphology of the tiller of the max3 variant”. Further, the half-life entry in data set [1] was “approximately 10 days”.
`CC1=CC(Oc2ccc3ccccc3c2)OC1=O` (stereo not shown) [NaMF]: the “activity of inhibiting the morphology of the tiller” value in the data set on rice d10 variant (6 days in hydroponic solution with compound at 1 µM, 100 nM or 10 nM (Figure 2)) was “slightly weaker than that of the other compounds”.
Consider `CC1=CC(Oc2ccc(C(F)(F)F)cc2)OC1=O` (stereo not shown) [TFTF], for which the “length of the secondary tiller” value in the data set on rice d10 variant is recorded as “obviously inhibited”.
As for `CC1=CC(Oc2ccccc2Br)OC1=O` (stereo not shown) [o-BPMF], in the data set with rice d10 variant (result not shown), the tiller inhibitory activity entry is “weak tiller inhibitory activity”. In addition, in the data set with rice d10 variant (setting [5]), the “activity of inhibiting the morphology of the tiller” value is reported as “high activity”. In addition, the “parasitic weed germination-inducing activity” value in the data set with parasitic weed was “stronger parasitic weed germination-inducing activity than that of p-BPMF”.
On to `CC1=CC(Oc2ccccc2Cl)OC1=O` (stereo not shown) [o-CPMF], for which the “activity of inhibiting the morphology of the tiller” value in the data set with rice d10 variant (setting [5]) is on record as “high activity”.
The same measure, in the same setting: with `CC1=CC(Oc2ccccc2F)OC1=O` (stereo not shown) [o-FPMF] the entry was “high activity”.

The values are drawn from patent EP2623502A1, “NOVEL COMPOUND HAVING STRIGOLACTONE-LIKE ACTIVITY AND USE THEREOF” (Riken, priority 2010, dated 2012).
